Source: patent publication US11976072B2, “Diacylglycerol kinase modulating compounds” (priority 2021, dated 2024)

Assays:
human DGKα = human DGKα (Homo sapiens, UniProt P23743); test: DGKα Biochemical Activity Assay (ADP-Glo); conditions: recombinant DGKα 1 nM, 100 μM ATP, 18:1 DAG/POPS/octylglucoside micelles, 1 hour at 25° C.; geometric mean; read-out: HTBS DGKa 1X ATP KM IC50;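 also: luminescent detection of ADP produced as DGKα phosphorylates DAG to phosphatidic acid, IC50 from four-parameter nonlinear curve fit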
human DGKα, sequence (P23743 whole entry): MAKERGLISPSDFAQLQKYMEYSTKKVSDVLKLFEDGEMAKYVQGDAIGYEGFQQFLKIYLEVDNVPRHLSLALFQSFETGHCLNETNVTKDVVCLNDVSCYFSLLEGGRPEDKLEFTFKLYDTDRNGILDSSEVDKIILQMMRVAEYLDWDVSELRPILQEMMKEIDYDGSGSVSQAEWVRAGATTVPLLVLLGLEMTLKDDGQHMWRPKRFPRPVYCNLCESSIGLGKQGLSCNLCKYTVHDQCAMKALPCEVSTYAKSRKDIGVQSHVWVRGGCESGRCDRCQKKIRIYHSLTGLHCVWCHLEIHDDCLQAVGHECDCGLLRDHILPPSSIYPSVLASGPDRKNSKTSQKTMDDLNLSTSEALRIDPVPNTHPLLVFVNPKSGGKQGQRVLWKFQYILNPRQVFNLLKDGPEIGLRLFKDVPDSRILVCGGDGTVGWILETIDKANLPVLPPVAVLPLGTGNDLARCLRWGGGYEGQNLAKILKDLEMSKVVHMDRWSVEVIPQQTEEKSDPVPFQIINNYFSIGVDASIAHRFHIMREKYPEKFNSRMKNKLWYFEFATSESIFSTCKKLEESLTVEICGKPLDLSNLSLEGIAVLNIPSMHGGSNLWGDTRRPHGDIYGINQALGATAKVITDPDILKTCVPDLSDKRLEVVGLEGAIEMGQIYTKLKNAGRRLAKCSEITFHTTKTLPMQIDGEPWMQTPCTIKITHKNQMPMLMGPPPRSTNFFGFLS

[1] = test system: Jurkat NFκB-luciferase cells; test: Jurkat NFκB-Luciferase Assay; type: cell-based; conditions: Homo sapiens; Jurkat NFκB-luciferase cells activated with anti-CD3 antibody (OKT3), 2.5 hrs at 37° C.; geometric mean; read-out: DGK NFKb Luciferase EC50
In short: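 Luminescence from One-Glo Ex, read 7 min post-addition, reports NFκB activation in Jurkat luciferase reporter cells. Cells, diluted to 1 million cells/ml in 10% FBS RPMI, were dispensed onto plates holding compound and washed, pre-bound antibody.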

| Structure (SMILES) | IC50 (human DGKα) [nM] | EC50 [1] [nM] |
| --- | --- | --- |
| Cc1nnc2nc(N3CCCc4c(C#CC5(C)COC5)cccc43)c3cc(F)ccc3n12 [Example 29, 7-fluoro-1-methyl-5-(5-((3-methyloxetan-3-yl)ethynyl)-3,4-dihydroquinolin-1(2H)-yl)-[1,2,4]triazolo[4,3-a]quinazoline] | 3.31 | 0.66 |
| Cc1nnc2nc(N3CCCc4c(C#CC(C)(C)c5ncco5)cccc43)c3c(F)cccc3n12 [Example 79, 2-(4-(1-(6-fluoro-1-methyl-[1,2,4]triazolo[4,3-a]quinazolin-5-yl)-1,2,3,4-tetrahydroquinolin-5-yl)-2-methylbut-3-yn-2-yl)oxazole] | 22.6 | 2.54 |
| Cc1nccn1C(C)(C)C#Cc1cccc2c1CCCN2c1nc2nnc(C)n2c2cccc(F)c12 [Example 76, 6-fluoro-1-methyl-5-(5-(3-methyl-3-(2-methyl-1H-imidazol-1-yl)but-1-yn-1-yl)-3,4-dihydroquinolin-1(2H)-yl)-[1,2,4]triazolo[4,3-a]quinazoline] | 13.4 | 8.01 |
| Cc1nnc2nc(N3CCN(C)Cc4c(C#CC5(C(F)(F)F)CC5)cccc43)c3c(F)cccc3n12 [Example 164, 6-fluoro-1-methyl-5-[4-methyl-6-[2-[1-(trifluoromethyl)cyclopropyl]ethynyl]-3,5-dihydro-2H-1,4-benzodiazepin-1-yl]-[1,2,4]triazolo[4,3-a]quinazoline] | 13 | 3.63 |
| Cc1nnc2nc(N3CCCc4c(C#CC(C)(C)c5ccccn5)cccc43)c3c(F)cccc3n12 [Example 71, 6-fluoro-1-methyl-5-(5-(3-methyl-3-(pyridin-2-yl)but-1-yn-1-yl)-3,4-dihydroquinolin-1(2H)-yl)-[1,2,4]triazolo[4,3-a]quinazoline] | 124 | 11.3 |
| Cc1nnc2nc(N3CCCc4c(C#CC5(C(C)(F)F)CC5)cccc43)c3cc(F)ccc3n12 [Example 31, 5-(5-((1-(1,1-difluoroethyl)cyclopropyl)ethynyl)-3,4-dihydroquinolin-1(2H)-yl)-7-fluoro-1-methyl-[1,2,4]triazolo[4,3-a]quinazoline] | 50.9 | 1.43 |
| Cc1nnc2nc(N3CCOCc4c(C#CC(C)(C)NC(=O)c5cn(C)nc5C(F)F)cccc43)c3c(F)cccc3n12 [Example 139, 3-(difluoromethyl)-N-[3-[1-(6-fluoro-1-methyl-[1,2,4]triazolo[4,3-a]quinazolin-5-yl)-3,5-dihydro-2H-4,1-benzoxazepin-6-yl]-1,1-dimethyl-prop-2-ynyl]-1-methyl-pyrazole-4-carboxamide] | 72.6 | 41.3 |
| Cc1nnc2nc(N3CCCCc4c(C#CC5(C(F)(F)F)CC5)cccc43)c3c(F)cccc3n12 [Example 192] | 54.9 | 0.892 |
| CC(F)(F)C1(C#Cc2cncc3c2CCCN3c2nc3nncn3c3ccc(F)c(F)c23)CC1 [Example 16, 5-(5-((1-(1,1-difluoroethyl)cyclopropyl)ethynyl)-3,4-dihydro-1,7-naphthyridin-1(2H)-yl)-6,7-difluoro-[1,2,4]triazolo[4,3-a]quinazoline] | 22.7 | 1.54 |
| Cc1nc(C#Cc2cccc3c2COCCN3c2nc3nnc(C)n3c3cccc(F)c23)co1 [Example 179, 1-(6-Fluoro-1-methyl-[1,2,4]triazolo[4,3-a]quinazolin-5-yl)-6-[2-(2-methyloxazol-4-yl)ethynyl]-3,5-dihydro-2H-4,1-benzoxazepine] | 9.59 | 9.13 |
| Cc1nnc2nc(N3CCCc4c(N5CCN(C(=O)C(F)F)CC5)cccc43)c3c(F)cccc3n12 [Example 158, 2,2-difluoro-1-[4-[1-(6-fluoro-1-methyl-[1,2,4]triazolo[4,3-a]quinazolin-5-yl)-3,4-dihydro-2H-quinolin-5-yl]piperazin-1-yl]ethanone] | 281 | 49.3 |
| Cc1nnc2nc(N3CCCc4c(C#Cc5cnn(C)c5)cccc43)c3c(F)c(F)ccc3n12 [Example 226, 6,7-difluoro-1-methyl-5-[5-[2-(1-methylpyrazol-4-yl)ethynyl]-3,4-dihydro-2H-quinolin-1-yl]-[1,2,4]triazolo[4,3-a]quinazoline] | 3.42 | 3.92 |
| CC1(C#Cc2cc(N(CC(F)F)c3nc4nncn4c4c(Cl)cc(F)cc34)ccn2)CC1 [Example 61, 9-chloro-N-(2,2-difluoroethyl)-7-fluoro-N-(2-((1-methylcyclopropyl)ethynyl)pyridin-4-yl)-[1,2,4]triazolo[4,3-a]quinazolin-5-amine] | 8.48 | 3.36 |
| Cc1nnc2nc(N(CC(F)F)c3ccnc(C#CC(C)(C)C(F)F)c3F)c3c(F)cccc3n12 [Example 42, N-[2-(4,4-difluoro-3,3-dimethyl-but-1-ynyl)-3-fluoro-4-pyridyl]-N-(2,2-difluoroethyl)-6-fluoro-1-methyl-[1,2,4]triazolo[4,3-a]quinazolin-5-amine] | 6.93 | 2.32 |
| Cc1nnc2nc(N3CCCc4c(C#Cc5ccnc(C#N)c5)cccc43)c3cc(F)ccc3n12 [Example 229, 4-[2-[1-(7-fluoro-1-methyl-[1,2,4]triazolo[4,3-a]quinazolin-5-yl)-3,4-dihydro-2H-quinolin-5-yl]ethynyl]pyridine-2-carbonitrile] | 16.7 | 1.04 |
| Cc1nnc2nc(N3CCOCc4c(C#CC(C)(C)C(C)(F)F)cccc43)c3c(F)c(F)ccc3n12 [Example 184, 6-(4,4-Difluoro-3,3-dimethyl-pent-1-ynyl)-1-(6,7-difluoro-1-methyl-[1,2,4]triazolo[4,3-a]quinazolin-5-yl)-3,5-dihydro-2H-4,1-benzoxazepine] | 7.51 | 0.787 |
| Cc1nnc2nc(N3CCCc4c(C#CC5(O)CCCC5)cccc43)c3c(F)cccc3n12 [Example 205, 1-((1-(6-fluoro-1-methyl-[1,2,4]triazolo[4,3-a]quinazolin-5-yl)-1,2,3,4-tetrahydroquinolin-5-yl)ethynyl)cyclopentan-1-ol] | 13.9 | 16.6 |
| Cc1nnc2nc(N(CC(F)F)c3cccc(C#CC4(C(F)F)CC4)c3F)c3c(F)cccc3n12 [Example 51, N-(2,2-difluoroethyl)-N-[3-[2-[1-(difluoromethyl)cyclopropyl]ethynyl]-2-fluoro-phenyl]-6-fluoro-1-methyl-[1,2,4]triazolo[4,3-a]quinazolin-5-amine] | 5.01 | 1.92 |
| Cc1nnc2nc(N3CCCCc4c(C#CC5(NC(=O)C6(C(F)(F)F)CC6)CC5)cccc43)c3c(F)cccc3n12 [Example 177, N-(1-((1-(6-Fluoro-1-methyl-[1,2,4]triazolo[4,3-a]quinazolin-5-yl)-2,3,4,5-tetrahydro-1H-benzo[b]azepin-6-yl)ethynyl)cyclopropyl)-1-(trifluoromethyl)cyclopropane-1-carboxamide] | 6.74 | 23.4 |
| CCC1(C#Cc2cccc3c2COCCN3c2nc3nnc(C)n3c3cccc(F)c23)CC1 [Example 195, 6-[2-(1-Ethylcyclopropyl)ethynyl]-1-(6-fluoro-1-methyl-[1,2,4]triazolo[4,3-a]quinazolin-5-yl)-3,5-dihydro-2H-4,1-benzoxazepine] | 13.3 | 0.382 |
| Cc1nnc2nc(N3CCOCc4c(N5CC6CC(C5)C6(F)F)cccc43)c3c(F)cccc3n12 [Example 153] | 82.8 | 3.98 |
